Assay: Stability of the crystal modification (thermodynamic and storage stability)
Format: physicochemical
Conditions: for thermodynamic stability of the crystal modification: solid form of the compound of the formula (I)

storage stability (even after processing to suspensions) | thermodynamic stability of the crystal modification | SMILES
storage-stable | thermodynamically stable | O=C(O)CCCCN(CCc1ccccc1OCc1ccc(CCc2ccccc2)cc1)Cc1ccc(C(=O)O)cc1 [modification I, 4-({(4-carboxybutyl)[2-(2-{[4-(2-phenylethyl)benzyl]oxy}phenyl)ethyl]amino}-methyl)benzoic acid]
 | metastable | O=C(O)CCCCN(CCc1ccccc1OCc1ccc(CCc2ccccc2)cc1)Cc1ccc(C(=O)O)cc1 [modification IV, 4-({(4-Carboxybutyl)[2-(2-{[4-(2-phenylethyl)benzyl]oxy}phenyl)ethyl]amino}methyl)benzoic acid]

From US20120010292A1, “MODIFICATION I OF 4-(PHENYL)ETHYL]-AMINO}METHYL)BENZOIC ACID” (BAYER SCHERING PHARMA AKTIENGESELLSCHAFT, priority 2008, published 2012)
